# Test: Biological test of toxicity (lethal dose)
# Type: in vivo
# Conditions: biologischer Test
# Method: Weiterhin ließ sich nachweisen, daß in dem Präparat Ukrain (hier erfolgte die Umsetzung der Alkaloide von Chelidonium majus L. mit Thiophosphorsäuretriaziridid, gen. Thio-TEPA) keine freien Äthylengruppen des Thio-TEPA vorliegen. Dieser Nachweis wurde erbracht: • 1. durch eine chemische Analyse und • 2. dadurch, daß beim biologischen Test die Dosis letalis für Thio-TEPA bei 1 mg/kg Körpergewicht liegt, für das Präparat jedoch eine Dosis von 250 mg/kg Körpergewicht nicht toxisch ist.
smiles,measurement,value
"S=P(N1CC1)(N1CC1)N1CC1 [Thio-TEPA, Thiophosphorsäuretriaziridid]",Dosis letalis,1 mg/kg Körpergewicht
